In US12497371B2, “DRP-1 inhibitors as therapeutic agents” (The Florida International University Board of Trustees, priority 2023, dated 2025):

Legend:
[1] = system: eNAMPT-mediated mitochondrial fission; assay: eNAMPT-mediated mitochondrial fission; format: cell-based; details: FIG. 5A
Procedure: (§1) FIGS. 5A-5C show the validation of novel Drp1 inhibitors as therapeutics against VILI. Three novel Drp1 inhibitors identified in the Drp1 GTPase assay were tested for their ability to attenuate eNAMPT-mediated mitochondrial fission (5A). One of the compounds CTS2444-32 was further tested in mice exposed to high tidal mechanical ventilation (40 mL/kg, PEEP=5 cm H2O, BR=75 bpm, 4 h). […] Values are mean±SEM, n=4. *P<0.05 vs. spontaneously breathing control, †P<0.05 vs. DMSO+VILI.
Three lead compounds (FIG. 4) were selected for further testing. These compounds are referred to as CTS (Center for Translational Science) 2444-19, CTS2444-20, and CTS2444-32. These compounds were examined for their ability to prevent eNAMPT-mediated mitochondrial fission.

mouse primary microglia = assay: Paraquat-treated primary microglia, qPCR of inflammatory mRNA; format: cell-based; details: 6 h
Procedure: Microglia cells were treated with paraquat (PQ) in the presence or absence of compound 2444-32. The mRNA levels of IL-1β and RelA were analyzed. Microglia isolated from Drp1+/− pups was used as a positive control.
Neuroinflammation is commonly observed in Parkinson's disease (PD) and other neurodegenerative diseases. The role of activated microglia in causing neuroinflammation by upregulating the levels of pro-inflammatory cytokines such as IL-1β and relA is implicated in PD. The protective effects of one lead compound (2444-32) was evaluated using mouse primary microglia isolated from newborn pups. As shown in the FIG. 7, these cells were treated for with paraquat (PQ), a herbicide that has been linked to increasing the risk of developing PD, in the presence or absence of compound 2444-32. After 6 h, RNA was isolated for qPCR analysis. There was a dramatic increase in the levels of IL-1β and RelA mRNA. […] As a positive control model for a partial loss of Drp1 function, microglia isolated from Drp1+/− pups was used, which express approximately 50% of Drp1 as compared to their wild-type littermates. Significant reduction in neuroinflammation was also detected in these mutant microglia treated with PQ, indicating the protective effects of 2444-32 was most likely mediated through reduced Drp1 function, not off-target effects.

[2] = system: ventilator-induced lung injury (VILI); assay: VILI model: mice exposed to high tidal mechanical ventilation; format: in vivo; details: 10 mg/kg, i.p., 2 h
Procedure: as §1
CTS2444-32 (10 mg/kg, i.p., 2 h) attenuated the VILI-mediated increase in the levels of TNFα (6A), IL-6 (6B), IL-18 (6C), GROα, (6D), MIP-1α (6E), MIP-1β(6F), MCP-1 (6G), MCP-3 (6H), and IL-12p70 (6I) in the BALF. Values are mean±SEM, n=4. *P<0.05 vs. spontaneously beathing control, †P<0.05 vs. DMSO+VILI.
To validate Drp1 as a therapeutic target, four preclinical VILI/ARDS models are used: i) VILI; ii) a “two-hit” model of polymicrobial sepsis (cecal ligation and puncture, CLP) in addition to mechanical ventilation; iii) a “two-hit” COV19-pneumonia model consisting of the delivery of the COVID19 spike protein combined with mechanical ventilation and iv) the ARDS-like extended lung inflammation model in which the mice are exposed long-term to LPS. Therapeutic agents are given before the initiation of injury in the VILI-only model or at the beginning of mechanical ventilation in the “two-hit” models, or 4 d after LPS exposure in the extended lung inflammation model to mimic the situation of a critically ill patient in the ICU.

LUHMES cells = assay: α-synuclein PFF aggregation in LUHMES cells (pS129 immunostaining); format: cell-based, human; details: PFF 24 h, then 20 μM compound for 48 h
Procedure: To determine the therapeutic potential of compound 2444-32 against α-synuclein, human dopaminergic neuronal cells (LUHMES cells) were treated with human α-synuclein pre-formed fibrils (PFF). After 24 h incubation, cell culture media containing PFF was removed and replaced with fresh media containing 20 μM of compound 2444-32 or vehicle control. Cells were incubated for a further 48 h before having media removed and processed for immunostaining for pS129 α-synuclein, a pathogenic form of α-synuclein. α-synuclein protein aggregates were then quantified using the IMARIS (Oxford instruments) software.

cell proliferation = details: background statement; cited from earlier work
[3] = system: cardiac ischemia-reperfusion injury; details: background statement; cited from earlier work
lung cancer tumor = details: xenograft mouse model; background statement; cited from earlier work
dynamin 2 = molecular target: T1, dynamin 2 (Homo sapiens, UniProt P50570); details: background statement; cited from earlier work
T1 sequence (P50570 1-870): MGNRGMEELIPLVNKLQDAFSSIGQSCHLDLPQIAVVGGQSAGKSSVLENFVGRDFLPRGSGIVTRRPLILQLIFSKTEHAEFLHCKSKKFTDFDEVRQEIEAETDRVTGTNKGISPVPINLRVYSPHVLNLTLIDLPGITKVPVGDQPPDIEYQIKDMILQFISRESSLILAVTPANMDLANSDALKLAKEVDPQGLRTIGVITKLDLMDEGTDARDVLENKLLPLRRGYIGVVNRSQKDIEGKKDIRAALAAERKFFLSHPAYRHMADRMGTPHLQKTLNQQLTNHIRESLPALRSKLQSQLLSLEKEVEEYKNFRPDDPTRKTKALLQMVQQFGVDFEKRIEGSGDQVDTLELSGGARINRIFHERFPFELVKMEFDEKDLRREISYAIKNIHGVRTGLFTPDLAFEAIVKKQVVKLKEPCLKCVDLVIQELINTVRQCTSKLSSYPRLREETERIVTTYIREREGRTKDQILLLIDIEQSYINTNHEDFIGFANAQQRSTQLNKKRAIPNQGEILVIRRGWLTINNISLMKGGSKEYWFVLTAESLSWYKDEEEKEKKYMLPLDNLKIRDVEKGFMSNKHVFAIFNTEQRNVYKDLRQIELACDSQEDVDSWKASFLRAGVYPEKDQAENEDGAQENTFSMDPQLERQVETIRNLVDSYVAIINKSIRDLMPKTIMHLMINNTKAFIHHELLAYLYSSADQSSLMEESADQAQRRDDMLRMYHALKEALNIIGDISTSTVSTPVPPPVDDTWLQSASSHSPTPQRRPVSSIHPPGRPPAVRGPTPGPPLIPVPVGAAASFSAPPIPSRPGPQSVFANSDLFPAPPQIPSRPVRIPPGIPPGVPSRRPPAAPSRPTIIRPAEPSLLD

dynamin 1 = molecular target: T2, dynamin 1 (Homo sapiens, UniProt Q05193); details: background statement; cited from earlier work
T2 sequence (Q05193 1-864): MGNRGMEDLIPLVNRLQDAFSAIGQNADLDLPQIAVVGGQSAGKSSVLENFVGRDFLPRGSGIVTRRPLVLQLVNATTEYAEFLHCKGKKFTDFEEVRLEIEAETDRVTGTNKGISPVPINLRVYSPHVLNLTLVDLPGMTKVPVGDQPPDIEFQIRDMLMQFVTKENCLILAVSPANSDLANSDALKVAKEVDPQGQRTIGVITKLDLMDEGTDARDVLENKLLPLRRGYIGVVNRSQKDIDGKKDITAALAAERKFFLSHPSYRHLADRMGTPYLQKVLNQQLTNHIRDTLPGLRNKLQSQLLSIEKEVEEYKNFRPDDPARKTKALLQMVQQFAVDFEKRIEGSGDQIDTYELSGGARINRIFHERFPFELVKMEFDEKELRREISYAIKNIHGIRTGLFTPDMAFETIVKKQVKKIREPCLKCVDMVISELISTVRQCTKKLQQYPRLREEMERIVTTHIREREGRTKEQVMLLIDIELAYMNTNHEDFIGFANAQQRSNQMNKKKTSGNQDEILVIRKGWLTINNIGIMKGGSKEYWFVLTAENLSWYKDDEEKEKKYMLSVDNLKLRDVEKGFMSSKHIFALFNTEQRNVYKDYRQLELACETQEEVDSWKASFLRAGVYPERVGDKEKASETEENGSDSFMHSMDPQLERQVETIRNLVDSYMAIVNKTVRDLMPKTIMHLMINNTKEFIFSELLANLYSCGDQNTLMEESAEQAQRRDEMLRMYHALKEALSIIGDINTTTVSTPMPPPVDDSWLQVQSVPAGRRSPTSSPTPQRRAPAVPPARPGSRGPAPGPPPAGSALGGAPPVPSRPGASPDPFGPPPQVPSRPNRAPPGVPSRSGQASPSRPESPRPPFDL

complex I = details: background statement; cited from earlier work
lung EC = assay: LPS (TLR4)-dependent mitochondrial fission in lung EC; format: cell-based; details: LPS 2 EU/ml, 4 h; FIG. 1C
Procedure: TLR^4 ligation with LPS (2 EU/ml, 4 h) also increases mitochondrial fission and this is blocked by the putative Drp1 inhibitor, mdivi-1 (1C). Data are mean±SEM. N=3-10. P<0.05 vs. control.
Using immunofluorescence microscopy, increased mitochondrial localization of Drp1 was observed (FIG. 1B).

Drp1 GTPase = details: background statement; cited from earlier work

O=C(Cc1ccc(Cl)c(Cl)c1)N1CCN(Cc2csc(NCC3(c4ccccc4)CC3)n2)CC1 [Compound 2444-19]
increase in fission induced by eNAMPT [1]: not

CCCCNc1nc(CN2CCN(C(=O)CC3CC4CCC3C4)CC2)cs1 (centres unmarked) [Compound 2444-20]
increase in fission induced by eNAMPT [1]: prevent the increase in fission induced by eNAMPT

O=C(CC1CC2CCC1C2)N1CCN(Cc2csc(NCC3CCC3)n2)CC1 (centres unmarked) [Compound 2444-32]
paraquat-induced increase in IL-1β mRNA (mouse primary microglia): significantly attenuated
paraquat-induced increase in RelA mRNA (mouse primary microglia): significantly attenuated
VILI-mediated increase in TNFα in BALF ([2]; FIG. 6A): attenuated
VILI-mediated increase in IL-6 in BALF ([2]; FIG. 6B): attenuated
VILI-mediated increase in IL-18 in BALF ([2]; FIG. 6C): attenuated
VILI-mediated increase in GROα in BALF ([2]; FIG. 6D): attenuated
VILI-mediated increase in MIP-1α in BALF ([2]; FIG. 6E): attenuated
VILI-mediated increase in MIP-1β in BALF ([2]; FIG. 6F): attenuated
VILI-mediated increase in MCP-1 in BALF ([2]; FIG. 6G): attenuated
VILI-mediated increase in MCP-3 in BALF ([2]; FIG. 6H): attenuated
VILI-mediated increase in IL-12p70 in BALF ([2]; FIG. 6I): attenuated
total cell counts in bronchoalveolar lavage (BAL) fluid ([2]; high tidal ventilation 40 mL/kg, 4 h, FIG. 5B): decreases
protein in bronchoalveolar lavage (BAL) fluid ([2]; high tidal ventilation 40 mL/kg, 4 h, FIG. 5C): decreases
lung injury ([2]; mice exposed to VILI): decreases lung injury
α-synuclein aggregation (puncta) (LUHMES cells): significantly reduced
increase in fission induced by eNAMPT [1]: prevent the increase in fission induced by eNAMPT

O=C1c2ccncc2C(=O)c2c1[nH]c1ccccc21 [Drpitor1a]
cell proliferation (cell proliferation): reduce cell proliferation
protection against cardiac ischemia-reperfusion injury [3]: protect against cardiac ischemia-reperfusion injury
lung cancer tumor growth (lung cancer tumor): suppress lung cancer tumor growth

O=C(N/N=C/c1ccc(O)c(O)c1)c1cc2ccccc2cc1O [Dynasore]
inhibition of dynamin 2 (dynamin 2): blocks
inhibition of dynamin 1 (dynamin 1): blocks

COc1cc(-n2c(=S)[nH]c3ccccc3c2=O)c(Cl)cc1Cl [mdivi-1]
inhibition of complex I (complex I): reversible inhibitor
TLR4-dependent mitochondrial fission (lung EC): decreases TLR4-dependent mitochondrial fission
inhibition of Drp1 GTPase activity (Drp1 GTPase): weak and non-specific inhibitor
